Laboratory results from patent publication US11447479B2, “Compounds active towards nuclear receptors” (NUEVOLUTION A/S, priority 2019, dated 2022).

Each compound was assayed against T1, RORγ (Homo sapiens, UniProt P51449) (assay: RORγ Reporter Assay (Gal4)). Settings: HEK293 co-transfected with RORγ LBD-Gal4 and luciferase reporter, 24 h incubation, absolute IC50; read-out: IC50.
T1 construct: Gal4 (galactose-responsive transcription factor); expressed in transfected cells; host or cells: HEK293
T1 sequence (P51449 269-508 limits assumed): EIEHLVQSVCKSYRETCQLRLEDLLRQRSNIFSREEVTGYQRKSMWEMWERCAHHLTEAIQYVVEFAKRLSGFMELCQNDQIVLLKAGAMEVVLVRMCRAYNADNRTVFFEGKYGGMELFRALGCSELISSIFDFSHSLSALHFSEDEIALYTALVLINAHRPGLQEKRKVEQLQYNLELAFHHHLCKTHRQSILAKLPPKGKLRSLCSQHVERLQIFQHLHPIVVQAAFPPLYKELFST
Type: cell-based
Protocol: RORγ Reporter Assay (Gal4)
The HEK293 cell line is co-transfected transiently with two plasmids, one with the RORγ ligand-binding domain fused to galactose-responsive transcription factor (Gal4), and the other with the luciferase reporter gene and Gal binding sites (UAS). This construction allows to determine the RORγ activity in a cellular system through the measurement of luminescence.
A suspension of RORγ reporter cells was dispensed into plates and cultured 2 h at 37° C. and 5% CO2. Media formulation consisted in DMEM/F-12 medium (Gibco) supplemented with 10% heat inactivated FBS (Sigma-Aldrich), non-essential aminoacids (Sigma-Aldrich), 2 mM Glutamax (Gibco) and 100 U/mF penicillin (Sigma-Aldrich). Dose-response curves with compounds were prepared in 100% DMSO and further diluted […] in culture medium. Compound solutions were added to the plate containing cells (final DMSO concentration of 0.1%) and incubated for 24 h at 37° C. and 5% CO2. Luciferase detection reagent was added to each well, and relative light units […] were quantified from each assay well using a plate reading luminometer.
Values of average RFU±S.D. were computed for all treatment sets, followed by the calculations of percent-reduction of RORγ activity in response to respective test compound. The following formula was used: activity=100*[1−[x test compound/average vehicle]where the theoretical minimum reduction (0% reduction).

Row | SMILES | IC50
1 | NC(=O)CN1CC[C@H](CNc2ncnc(N3CCOC[C@@H]3c3ccc(C(F)(F)F)cn3)c2F)[C@H](F)C1 (single isomer, unassigned) [Example H6-12-2, 2-((3R*,4S*)-3-fluoro-4-(((5-fluoro-6-((S)-3-(5-(trifluoromethyl)pyridin-2-yl)morpholino)pyrimidin-4-yl)amino)methyl)piperidin-1-yl)acetamide] | 910 nM
2 | NC(=O)CN1CCC(CNc2ncnc(N3CCC[C@@H]3c3ccc(C(F)(F)F)cc3)c2F)CC1 [Example H6-25-1, (R)-2-(4-(((5-fluoro-6-(2-(4-(trifluoromethyl)phenyl)pyrrolidin-1-yl)pyrimidin-4-yl)amino)methyl)piperidin-1-yl)acetamide] | 66 nM
3 | NC(=O)CN1CCC(CNc2ncnc(N3CCOC[C@@H]3c3ccc(OC(F)(F)F)cc3)c2F)CC1 [Example H6-23, (S)-2-(4-(((5-fluoro-6-(3-(4-(trifluoromethoxy)phenyl)morpholino)pyrimidin-4-yl)amino)methyl)piperidin-1-yl)acetamide] | 190 nM
4 | NC(=O)CN1CCC(CNc2ncnc(N3CCOC[C@@H]3c3ccc(C(F)(F)F)cc3)c2F)C(F)(F)C1 (single isomer, unassigned) [Example H6-9-1, 2-((R*)-3,3-difluoro-4-(((5-fluoro-6-((S)-3-(4-(trifluoromethyl)phenyl)morpholino)pyrimidin-4-yl)amino)methyl)piperidin-1-yl)acetamide] | 100 nM
5 | CC(C(N)=O)N1CCC(CNc2ncnc(N3CCOC[C@@H]3c3ccc(C(F)(F)F)cn3)c2F)CC1 (some centres unmarked) [Example H6-1] | 910 nM
6 | NC(=O)CN1CCC(F)(CNc2ncnc(N3CCOC[C@@H]3c3ccc(C(F)(F)F)cc3)c2F)CC1 [Example H6-4, (S)-2-(4-fluoro-4-(((5-fluoro-6-(3-(4-(trifluoromethyl)phenyl)morpholino)pyrimidin-4-yl)amino)methyl)piperidin-1-yl)acetamide] | 56 nM
7 | NC(=O)CN1CCC(O)(CNc2ncnc(N3CC(F)(F)C[C@@H]3c3ccc(C(F)(F)F)cc3)c2F)CC1 [Example H6-14, (R)-2-(4-(((6-(4,4-difluoro-2-(4-(trifluoromethyl)phenyl)pyrrolidin-1-yl)-5-fluoropyrimidin-4-yl)amino)methyl)-4-hydroxypiperidin-1-yl)acetamide] | 230 nM

Now from value to compound:

Row | IC50 | SMILES
8 | 46 nM | NC(=O)CN1CCC(CNc2ncnc(N3CC(F)(F)C[C@@H]3c3ccc(C(F)(F)F)cn3)c2F)C(F)(F)C1 (single isomer, unassigned) [Example H6-19-2, 2-((R*)-4-(((6-((R)-4,4-difluoro-2-(5-(trifluoromethyl)pyridin-2-yl)pyrrolidin-1-yl)-5-fluoropyrimidin-4-yl)amino)methyl)-3,3-difluoropiperidin-1-yl)acetamide]
9 | 35 nM | NC(=O)CN1CC[C@@H](CNc2ncnc(N3CCOC[C@@H]3c3ccc(C(F)(F)F)cc3)c2F)[C@H](O)C1 (single isomer, unassigned) [Example H6-7-2, 2-((3R*,4R*)-4-(((5-fluoro-6-((S)-3-(4-(trifluoromethyl)phenyl)morpholino)pyrimidin-4-yl)amino)methyl)-3-hydroxypiperidin-1-yl)acetamide]
10 | 31 nM | NC(=O)CN1CC[C@H](CNc2ncnc(N3CC(F)(F)C[C@@H]3c3ccc(C(F)(F)F)cc3)c2F)[C@@H](O)C1 (single isomer, unassigned) [Example H6-17-2, 2-((3R*,4R*)-4-(((6-((R)-4,4-difluoro-2-(4-(trifluoromethyl)phenyl)pyrrolidin-1-yl)-5-fluoropyrimidin-4-yl)amino)methyl)-3-hydroxypiperidin-1-yl)acetamide]
11 | 25 nM | NC(=O)CN1CCC(CNc2ncnc(N3CC(F)(F)C[C@@H]3c3ccc(C(F)(F)F)cc3)c2F)C(F)(F)C1 (single isomer, unassigned) [Example H6-15-2, 2-((R*)-4-(((6-((R)-4,4-difluoro-2-(4-(trifluoromethyl)phenyl)pyrrolidin-1-yl)-5-fluoropyrimidin-4-yl)amino)methyl)-3,3-difluoropiperidin-1-yl)acetamide]
12 | 18 nM | NC(=O)CN1CCC(CNc2ncnc(N3CCOC[C@@H]3c3ccc(C(F)(F)F)cc3)c2F)C(F)(F)C1 (single isomer, unassigned) [Example H6-9-2, 2-((R*)-3,3-difluoro-4-(((5-fluoro-6-((S)-3-(4-(trifluoromethyl)phenyl)morpholino)pyrimidin-4-yl)amino)methyl)piperidin-1-yl)acetamide]
13 | 14 nM | NC(=O)CN1CC[C@H](CNc2ncnc(N3CC(F)(F)C[C@@H]3c3ccc(C(F)(F)F)cc3)c2F)[C@@H](F)C1 (single isomer, unassigned) [Example H6-16-1, 2-((3R*,4R*)-4-(((6-((R)-4,4-difluoro-2-(4-(trifluoromethyl)phenyl)pyrrolidin-1-yl)-5-fluoropyrimidin-4-yl)amino)methyl)-3-fluoropiperidin-1-yl)acetamide]
14 | 13 nM | NC(=O)CN1CC[C@H](CNc2ncnc(N3CCOC[C@@H]3c3ccc(C(F)(F)F)cc3)c2F)[C@@H](F)C1 (single isomer, unassigned) [Example H6-10-2, 2-((3R*,4R*)-3-fluoro-4-(((5-fluoro-6-((S)-3-(4-(trifluoromethyl)phenyl)morpholino)pyrimidin-4-yl)amino)methyl)piperidin-1-yl)acetamide]
15 | 10 nM | NC(=O)CN1CC[C@H](CNc2ncnc(N3CC(F)(F)C[C@@H]3c3ccc(C(F)(F)F)cc3)c2F)[C@@H](O)C1 (mixture of isomers) [Example H6-17, 2-((3RS,4RS)-4-(((6-((R)-4,4-difluoro-2-(4-(trifluoromethyl)phenyl)pyrrolidin-1-yl)-5-fluoropyrimidin-4-yl)amino)methyl)-3-hydroxypiperidin-1-yl)acetamide]
16 | 10 nM | NC(=O)CN1CC[C@H](CNc2ncnc(N3CC(F)(F)C[C@@H]3c3ccc(C(F)(F)F)cc3)c2F)[C@@H](F)C1 (single isomer, unassigned) [Example H6-16-2, 2-((3R*,4R*)-4-(((6-((R)-4,4-difluoro-2-(4-(trifluoromethyl)phenyl)pyrrolidin-1-yl)-5-fluoropyrimidin-4-yl)amino)methyl)-3-fluoropiperidin-1-yl)acetamide]
17 | 9 nM | NC(=O)CN1CCC(CNc2ncnc(N3CC(F)(F)C[C@@H]3c3ccc(C(F)(F)F)cc3)c2F)C(F)(F)C1 (single isomer, unassigned) [Example H6-15-1, 2-((R*)-4-(((6-((R)-4,4-difluoro-2-(4-(trifluoromethyl)phenyl)pyrrolidin-1-yl)-5-fluoropyrimidin-4-yl)amino)methyl)-3,3-difluoropiperidin-1-yl)acetamide]

Same assay, conditions: comparison compounds from WO2016020295, Tables 5 and 6; read-out: Gal4 assay IC50

Row | IC50 | SMILES
18 | < 1000 nM | NC(=O)CC1CCC(CNc2ncnc(N3CCOC[C@@H]3c3ccc(C(F)(F)F)cc3)c2F)CC1 (some centres unmarked) [Example 206, reference compound]
19 | < 500 nM | NC(=O)CC1CCC(CNc2ncnc(N3CCOC[C@@H]3c3ccc(OC(F)(F)F)cc3)c2F)CC1 (some centres unmarked) [Example 245, reference compound]
20 | < 100 nM | NC(=O)Cc1ccc(CNc2ncnc(N3CCOC[C@@H]3c3ccc(OC(F)(F)F)cc3)c2F)cc1 [Example 230, reference compound]
